These results are taken from paper PMC4795788, “Finding Potent Sirt Inhibitor in Coffee: Isolation, Confirmation and Synthesis of Javamide-II (N-Caffeoyltryptophan) as Sirt1/2 Inhibitor” (PLoS ONE, 2016).

Assay type in all cases: biochemical
For one test, the target named is T1, Sirt3 (Homo sapiens, UniProt Q9NTG7).
T1 construct: human recombinant Sirt3 (Cayman Direct Fluorescent Screening Assay kit)
T1 sequence (Q9NTG7 102-399): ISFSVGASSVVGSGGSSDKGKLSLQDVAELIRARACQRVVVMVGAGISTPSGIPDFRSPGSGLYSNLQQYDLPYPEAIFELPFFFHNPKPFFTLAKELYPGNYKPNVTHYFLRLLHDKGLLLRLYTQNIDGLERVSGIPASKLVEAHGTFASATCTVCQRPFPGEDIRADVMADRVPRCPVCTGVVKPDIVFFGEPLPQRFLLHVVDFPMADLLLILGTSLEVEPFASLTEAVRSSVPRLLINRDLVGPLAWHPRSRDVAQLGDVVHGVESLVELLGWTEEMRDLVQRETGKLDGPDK
As to the kind of experiment: fluorescent deacetylase assay, % inhibition at […].

The target of the next test is T2, Sirt2 (Homo sapiens, UniProt Q8IXJ6).
T2 sequence (Q8IXJ6 2-389): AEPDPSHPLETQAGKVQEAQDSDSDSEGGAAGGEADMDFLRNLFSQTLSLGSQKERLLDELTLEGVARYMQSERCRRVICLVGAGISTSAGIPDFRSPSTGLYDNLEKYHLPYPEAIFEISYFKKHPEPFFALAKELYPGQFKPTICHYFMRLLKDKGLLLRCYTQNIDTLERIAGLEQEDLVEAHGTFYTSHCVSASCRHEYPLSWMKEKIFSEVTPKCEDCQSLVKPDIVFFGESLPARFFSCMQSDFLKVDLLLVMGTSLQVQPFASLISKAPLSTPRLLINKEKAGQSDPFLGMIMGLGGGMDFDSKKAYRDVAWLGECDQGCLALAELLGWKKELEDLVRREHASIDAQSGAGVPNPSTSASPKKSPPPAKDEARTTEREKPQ
In words: fluorescent deacetylase assay, Lineweaver-Burk kinetics (IC50 […]).

The target of a further test is T3, Sirt1 (Homo sapiens, UniProt Q96EB6).
T3 construct: human recombinant Sirt1 (Cayman Direct Fluorescent Screening Assay kit)
T3 sequence (Q96EB6 2-747): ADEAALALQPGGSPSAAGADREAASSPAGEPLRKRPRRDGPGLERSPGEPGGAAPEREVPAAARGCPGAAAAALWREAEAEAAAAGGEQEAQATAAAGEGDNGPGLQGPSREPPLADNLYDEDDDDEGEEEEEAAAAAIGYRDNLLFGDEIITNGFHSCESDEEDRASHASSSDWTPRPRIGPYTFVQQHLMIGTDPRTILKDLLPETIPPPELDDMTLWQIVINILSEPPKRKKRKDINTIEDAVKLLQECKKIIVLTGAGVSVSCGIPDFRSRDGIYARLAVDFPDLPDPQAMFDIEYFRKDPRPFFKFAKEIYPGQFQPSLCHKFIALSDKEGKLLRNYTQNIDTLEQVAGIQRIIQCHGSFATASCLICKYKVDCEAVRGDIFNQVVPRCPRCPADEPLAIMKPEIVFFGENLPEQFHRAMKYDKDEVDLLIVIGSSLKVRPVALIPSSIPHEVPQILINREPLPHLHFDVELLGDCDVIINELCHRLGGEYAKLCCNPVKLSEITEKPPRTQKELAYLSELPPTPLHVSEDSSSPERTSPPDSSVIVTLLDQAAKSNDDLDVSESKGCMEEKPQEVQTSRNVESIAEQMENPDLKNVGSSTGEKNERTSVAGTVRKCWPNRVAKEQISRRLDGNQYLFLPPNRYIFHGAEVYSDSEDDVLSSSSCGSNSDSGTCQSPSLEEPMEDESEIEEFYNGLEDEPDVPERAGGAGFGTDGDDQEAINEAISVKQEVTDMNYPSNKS
In words: fluorescent deacetylase assay.

Broadly, the inhibition is the relative decrease from the control value, in per cent. A low value points to a weak effect. In general, Ki refers to a measure of affinity in units of concentration, obtained from inhibition or displacement. A word on the IC50: it is the concentration that gives 50% inhibition. Molecule `O=C(/C=C/c1ccc(O)c(O)c1)N[C@@H](Cc1c[nH]c2ccccc12)C(=O)O` [javamide-II, (E)-(3-(3,4-dihydroxyphenyl)acryloyl)tryptophan] registered an inhibition at 60 µM at Sirt3 of 50 ± 8.1%. This molecule yielded a Ki at Sirt2 of 5.3 µM. For the same molecule, half-maximal inhibition at Sirt1 (IC50) was put at 34 µM.
